Assay results taken from ChEMBL document CHEMBL1151509, “Synthesis of active metabolites of indole pyrrolothiazole paf antagonists” (Bioorg Med Chem Lett, 1995).

Columns and labels:
[1] = system: Rattus norvegicus; assay: Inhibition of PAF induced cutaneous vascular permeability in rat by intravenous administration; type: functional
[2] = target: Platelet-activating factor receptor (Rattus norvegicus, UniProt P46002); assay: Inhibition of platelet activating factor(PAF) by binding to PAF receptor
Platelet-activating factor receptor, sequence (P46002 whole entry): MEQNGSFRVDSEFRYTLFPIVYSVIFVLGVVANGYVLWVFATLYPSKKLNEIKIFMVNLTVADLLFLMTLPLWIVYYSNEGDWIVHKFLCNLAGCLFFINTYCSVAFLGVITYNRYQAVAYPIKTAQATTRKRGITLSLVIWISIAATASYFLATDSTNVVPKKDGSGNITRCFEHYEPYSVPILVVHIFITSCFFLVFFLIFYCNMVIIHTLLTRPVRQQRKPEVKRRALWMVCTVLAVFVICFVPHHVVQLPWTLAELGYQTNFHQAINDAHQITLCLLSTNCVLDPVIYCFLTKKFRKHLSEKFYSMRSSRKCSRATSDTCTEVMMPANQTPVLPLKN

Ki [2]	Structure (SMILES)	ED50 ([1]; Rattus norvegicus, iv, read-out: ED50)	ED50 [1]
–	CN(C)C(=O)n1cc(C(=O)c2ccn3c2CS[C@@H]3c2cccnc2)c2ccc(-c3ccc(F)cc3)cc21	0.006 mg/kg	–
8.5 nM	CN(C)C(=O)n1cc(C(=O)c2ccn3c2C[S+]([O-])[C@@H]3c2cccnc2)c2ccc(-c3ccc(F)cc3)cc21 (stereo in doubt; cis)	–	0.025 mg/kg
68 nM	CN(C)C(=O)n1cc(C(=O)c2ccn3c2C[S+]([O-])[C@@H]3c2cccnc2)c2ccc(-c3ccc(F)cc3)cc21 (stereo in doubt; trans)	–	0.1 mg/kg
